# Literature values as cited in US20050009848A1, “Use of antivirals against inflammatory bowel diseases” (ICN Pharmaceuticals Switzerland Ltd., priority 2003, published 2005).
# Conditions: one patient with Crohn's disease, HSV-I and HSV-II DNA detected in intestinal mucosa; acyclovir co-used with classical mesalazin-corticosteroid therapy
smiles,measurement,value
Nc1nc2c(ncn2COCCO)c(=O)[nH]1 [acyclovir],morphological and clinical findings,changed the morphological and clinical findings decisively
